Values quoted from earlier work as cited in patent US12630504B2, “Phenethylamine derivatives, compositions, and methods of use” (CYBIN IRL LIMITED, priority 2020, dated 2026).

SMILES	biological activity (due to extensive first-pass metabolism)	oral dose at which orally active (oral, only at high doses owing to low brain bioavailability)
NCCc1ccc2c(c1)OCO2 [MDPEA, 3,4-methylenedioxyphenethylamine]	biologically inactive	–
COc1cc(CCN)cc(OC)c1OC [Mescaline, 3,4,5-trimethoxyphenethylamine]	–	~300 mg
